Like-named read-outs stand apart in the source and are kept apart here.
What was measured:
Type in all cases: physicochemical
[1] = Particle size distribution (d50, sharpness index); set-up: key to sharpness index of the crystal thus obtained / sharpness index of the fine powders: calculated by formula from d10, d50, d90; 1.0 = most uniform particle size; conditions: for d50: samples of dissolution test (Table 4)
Text: d10 in the present description is a value obtained from a particle size distribution analyzer, and represents a particle size of a particle corresponding to 10% of accumulation from the smaller particle side in the particle size distribution based on the volume.
d50 in the present description is a value obtained from a particle size distribution analyzer, and represents a particle size of a particle corresponding to 50% of accumulation from the smaller particle side in the particle size distribution based on the volume.
“Sharpness index” in the present description is an index representing the uniformity of a particle size of a particle in a powder, and a sharpness index of 1.0 represents a powder having the most uniform particle size. The closer the sharpness index is to 1.0, the more the particle size of the powder is uniform. Specifically, the sharpness index represents a value calculated using the following formula from the values of d10, d50, and d90 measured by a particle size distribution analyzer:
Images for measuring the number of particles were obtained by a scanner GT-X830 manufactured by SEIKO EPSON CORPORATION. The powder X-ray diffraction (XRD) was measured using a desktop X-ray diffraction device MiniFlex300 manufactured by Rigaku Corporation. […] The particle strength was measured using a particle hardness measuring device NEW GRANO manufactured by OKADA SEIKO CO., LTD. […] The purity of a compound was measured by a high performance liquid chromatograph (LC-20A) manufactured by Shimadzu Corporation.

[2] = Measurement of dissolution profile (μDISS Profiler); conditions: 30 mg in 10 mL phosphate buffer pH 6.8, 37° C., 300 rpm
Protocol: The dissolution profile is described by the zero-order model, the first-order model, the Weibull model, the Higuchi model, the Hixson-Crowell model, the Korsmeyer-Peppas model, the Baker-Lonsdale model, the Hopfenberg model, and the like. The Weibull model is represented by the following formula: […]
The particle size distribution was measured in a dry manner using a spray particle size distribution analyzer AEROTRAC LDSA-SPR3500A manufactured by Microtrac Inc. The particle size distribution in Examples 2 and 7 was measured in a dry manner using a laser diffraction particle size distribution measurement MASTERSIZER 3000 manufactured by Malvern Panalytical Ltd. SEM images were measured using a scanning electron microscope JSM-IT100 manufactured by JEOL Ltd. Light microscope images were measured using an upright microscope BX53M manufactured by Olympus Corporation and a microscope digital camera DP74 manufactured by Olympus Corporation. […] The powder X-ray diffraction (XRD) was measured using a desktop X-ray diffraction device MiniFlex300 manufactured by Rigaku Corporation. The specific surface area was measured by the BET fluid process (gas used: pure nitrogen) using a fully automatic specific surface area measuring device Macsorb HM-1208 manufactured by Mountech Co., Ltd. The moisture content was measured using a trace moisture measuring device AQ-2200 manufactured by […] […]

[3] = Specific surface area (BET fluid process); conditions: nitrogen, trihydrate
Protocol: The particle size distribution was measured in a dry manner using a spray particle size distribution analyzer AEROTRAC LDSA-SPR3500A manufactured by Microtrac Inc. The particle size distribution in Examples 2 and 7 was measured in a dry manner using a laser diffraction particle size distribution measurement MASTERSIZER 3000 manufactured by Malvern Panalytical Ltd. SEM images were measured using a scanning electron microscope JSM-IT100 manufactured by JEOL Ltd. Light microscope images were measured using an upright microscope BX53M manufactured by Olympus Corporation and a microscope digital camera DP74 manufactured by Olympus Corporation. […] The powder X-ray diffraction (XRD) was measured using a desktop X-ray diffraction device MiniFlex300 manufactured by Rigaku Corporation. The specific surface area was measured by the BET fluid process (gas used: pure nitrogen) using a fully automatic specific surface area measuring device Macsorb HM-1208 manufactured by Mountech Co., Ltd. The moisture content was measured using a trace moisture measuring device AQ-2200 manufactured by […] SANGYO Co., Ltd. The dissolution profile was measured using μDISS Profiler manufactured by Pion Inc. Centrifugal classification was performed using a high-efficiency precision forced air classifier Lab Calssiel N-01 manufactured by SEISHIN […] […]

[4] = Sphericity from SEM images (ImageJ); set-up: key: 1 = true sphere; closer to 1 = more spherical; mean of ≥5 particles; conditions: trihydrate; for sphericity of the spherulite: SEM image analysis, mean of particles
Particle strength = experiment: Particle strength
Text: Furthermore, a polycrystal with a high particle density also has a high particle strength. When a polycrystal, particularly a spherulite, is used as a raw material for production of drugs, a problem occurs in which wear in a formulation step leads to deterioration of yield or quality or both, and a polycrystal with a high particle strength has an advantage in this regard. When a specifically-shaped crystal obtained by the present invention is a polycrystal, the particle strength is preferably 1.0 MPa or more, more preferably 1.5 MPa or more, still more preferably 2.0 MPa, yet more preferably 2.5 MPa or more, and particularly preferably 3.0 MPa or more. The particle strength is calculated by measuring the force at which a particle breaks when load is applied to one particle and the particle size. Specifically, the particle strength is calculated by the following formula in accordance with JIS R 1639-5. Examples of a measuring device include a particle hardness measuring device NEW GRANO manufactured by OKADA SEIKO CO., LTD. and a micro compression testing machine MCT manufactured by Shimadzu Corporation. […]
The particle strength of the spherulite of esomeprazole magnesium trihydrate obtained in Example 2, the spherulite of esomeprazole magnesium trihydrate obtained in Example 5, and the spherulite of esomeprazole magnesium trihydrate obtained in Example 6 was measured.

[5] = calculated from d10, d50, d90, trihydrate
[6] = dry particle size distribution, volume based, trihydrate

| SMILES | sharpness index of the crystal thus obtained [1, 5] | d50 of the crystal thus obtained [1, 6] [μm] | d50 ([1]; trihydrate) [μm] | dissolution compared with the non-spherulite [2] | Specific surface area [3] [m^2/g] | sphericity of the spherulite [4] | sphericity of the non-spherulite ([4]; non-spherulite crystals) | d50 of the crystal thus obtained [1] | sharpness index of the crystal thus obtained [1] | Particle strength (Particle strength; trihydrate) [MPa] | Particle strength (Particle strength) [MPa] |
| --- | --- | --- | --- | --- | --- | --- | --- | --- | --- | --- | --- |
| COc1ccc2[n-]c([S@@+]([O-])Cc3ncc(C)c(OC)c3C)nc2c1.COc1ccc2[n-]c([S@@+]([O-])Cc3ncc(C)c(OC)c3C)nc2c1.O.O.O.[Mg+2] [Example 8(1), esomeprazole magnesium trihydrate] | 2.2 | 33.0 | 33.0 | more rapid dissolution | 22.6 | 0.95±0.03 |  |  |  |  |  |
| COc1ccc2[n-]c([S@@+]([O-])Cc3ncc(C)c(OC)c3C)nc2c1.COc1ccc2[n-]c([S@@+]([O-])Cc3ncc(C)c(OC)c3C)nc2c1.O.O.O.[Mg+2] [Ground product of non-spherulite, esomeprazole magnesium trihydrate] |  |  | 5.1 |  | 44.0 |  | 0.45±0.23 |  |  |  |  |
| COc1ccc2[n-]c([S@@+]([O-])Cc3ncc(C)c(OC)c3C)nc2c1.COc1ccc2[n-]c([S@@+]([O-])Cc3ncc(C)c(OC)c3C)nc2c1.O.O.O.[Mg+2] [Example 6, esomeprazole magnesium trihydrate] |  |  |  |  |  | 0.96±0.01 |  | 91.5 | 1.45 | 2.9 ± 0.5 |  |
| COc1ccc2[n-]c([S@@+]([O-])Cc3ncc(C)c(OC)c3C)nc2c1.COc1ccc2[n-]c([S@@+]([O-])Cc3ncc(C)c(OC)c3C)nc2c1.O.O.O.[Mg+2] [Example 5, esomeprazole magnesium trihydrate] | 1.4 | 149.9 |  |  |  | 0.89±0.05 |  |  |  |  | 2.3 ± 0.4 |

Source: patent US20210391038A1, “SPECIFICALLY-SHAPED CRYSTAL OF COMPOUND AND METHOD FOR PRODUCING SAME” (TOWA PHARMACEUTICAL CO., LTD., priority 2018, published 2021)
